Assay results reported in patent publication US9416115B2, “Fused heterocyclic compounds as ion channel modulators” (Gilead Sciences, Inc., priority 2013, dated 2016).
Read-outs that look alike come from different tables or passages of the source.

Assays:
[1] = target: hNav1.1 (SCN1A) (Homo sapiens, UniProt P35498); assay: Use-dependent inhibition of the CNS Nav1.1 sodium channel; type: cell-based; details: use-dependent block, 25 Hz, pulse 20, read-out: Nav1.1 UDB 25 Hz 10 uM
Method: HEK-293 cells stably expressing wild-type (WT) hNav1.1 (SCN1A, NCBI# AB09354) were obtained from Millipore (Cat. # CYL3009) were used to record INa. Cells are maintained with standard tissue culture procedures and stable channel expression is maintained with 400 ug/mL G418 in the culture medium. Unless otherwise noted, all reagents are purchased from Sigma-Aldrich (St Louis, Mo., U.S.A.).
Assays measuring Use-Dependent Block (UDB) of Nav1.2 are performed on an automated electrophysiology platform, QPatch 16X or QPatch HT (Sophion Bioscience, Copenhagen, Denmark), using the whole cell patch clamp technique to measure currents through the cell membrane. Series resistance compensation is set to 100% and series resistance and whole-cell compensation are performed automatically. Currents stored in the Sophion Bioscience Oracle database (Sophion Bioscience, Copenhagen, Denmark). Analysis is performed using QPatch Assay software and data are compiled in Excel 2010 (Microsoft, Seattle, Wash., U.S.A.).
The internal (pipette) solution consists of (in mM) 105 CsF, 10 NaF, 20 CsCl, 2 EGTA, 10 HEPES, 10 Dextrose with a pH of 7.35 and osmolarity of 300 mOsmol/kg. The external (bath) solution contains in (mM): 145 NaCl, 4 KCl, 1.8 CaCl2, 1 MgCl2, 10 dextrose, 10 HEPES, with a pH of 7.35 and osmolarity of 310 mOsmol/kg. Experiments are carried out at 23-25° C.
Compound stocks are routinely made by the Gilead Sample Bank in vials to 10 mM in dimethyl sulfoxide (DMSO). In some cases, when compounds are not soluble in DMSO, they are made in 100% ethanol. Stocks are sonicated as necessary. […]
Cells are allowed to stabilize for 10 min after establishment of the whole-cell configuration before current is measured. The test compound is applied 2 times at 60 second intervals. After the second compound addition, a 200 second wait period was imposed to allow for equilibration. Leak currents are subtracted by using an online P/4 procedure and all currents are low-pass Bessel filtered at 5 kHz and digitized at […].
Use-dependent block of Nav1.2 peak current is measured during pulse number 20 of a voltage pulse train (0 mV, 20 ms, 20 pulses, 25 Hz) from a holding potential of −120 mV. Currents are normalized to the peak current recorded in response to the first pulse in each frequency train. The voltage protocol for UDB was performed in the absence and presence of compound and percentage inhibition was calculated with respect to the compound free condition. Results are presented as mean percentage inhibition and data analysis is performed using QPatch Assay Software 4.0, and Excel 2002 (Microsoft, Seattle, Wash., U.S.A.).

[2] = target: wild-type human cardiac sodium channel, hNav1.5 (Homo sapiens, UniProt Q14524); assay: Peak INa screening assay (tonic block and use-dependent block); type: cell-based
Outline: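 Whole-cell automated patch clamp, 23-25° C, on hNav1.5 alpha-only HEK293 cells with Na+ lowered to 40 mM by choline. Block measured after two additions of 1 or 3 μM compound and 200 s wait: tonic at 0.1 Hz, use-dependent at 50th pulse (−20 mV, 20 ms, 3 Hz) from −100 mV, relative to drug-free, rundown corrected.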

[3] = tonic block of Peak INa, 0.1 Hz, holding -100 mV, read-out: Peak TB 3 uM
[4] = use-dependent block of Peak INa, 3 Hz, pulse 50, read-out: Peak UDB 3 Hz 3 uM

Sequence of wild-type human cardiac sodium channel, hNav1.5 (Q14524 whole entry): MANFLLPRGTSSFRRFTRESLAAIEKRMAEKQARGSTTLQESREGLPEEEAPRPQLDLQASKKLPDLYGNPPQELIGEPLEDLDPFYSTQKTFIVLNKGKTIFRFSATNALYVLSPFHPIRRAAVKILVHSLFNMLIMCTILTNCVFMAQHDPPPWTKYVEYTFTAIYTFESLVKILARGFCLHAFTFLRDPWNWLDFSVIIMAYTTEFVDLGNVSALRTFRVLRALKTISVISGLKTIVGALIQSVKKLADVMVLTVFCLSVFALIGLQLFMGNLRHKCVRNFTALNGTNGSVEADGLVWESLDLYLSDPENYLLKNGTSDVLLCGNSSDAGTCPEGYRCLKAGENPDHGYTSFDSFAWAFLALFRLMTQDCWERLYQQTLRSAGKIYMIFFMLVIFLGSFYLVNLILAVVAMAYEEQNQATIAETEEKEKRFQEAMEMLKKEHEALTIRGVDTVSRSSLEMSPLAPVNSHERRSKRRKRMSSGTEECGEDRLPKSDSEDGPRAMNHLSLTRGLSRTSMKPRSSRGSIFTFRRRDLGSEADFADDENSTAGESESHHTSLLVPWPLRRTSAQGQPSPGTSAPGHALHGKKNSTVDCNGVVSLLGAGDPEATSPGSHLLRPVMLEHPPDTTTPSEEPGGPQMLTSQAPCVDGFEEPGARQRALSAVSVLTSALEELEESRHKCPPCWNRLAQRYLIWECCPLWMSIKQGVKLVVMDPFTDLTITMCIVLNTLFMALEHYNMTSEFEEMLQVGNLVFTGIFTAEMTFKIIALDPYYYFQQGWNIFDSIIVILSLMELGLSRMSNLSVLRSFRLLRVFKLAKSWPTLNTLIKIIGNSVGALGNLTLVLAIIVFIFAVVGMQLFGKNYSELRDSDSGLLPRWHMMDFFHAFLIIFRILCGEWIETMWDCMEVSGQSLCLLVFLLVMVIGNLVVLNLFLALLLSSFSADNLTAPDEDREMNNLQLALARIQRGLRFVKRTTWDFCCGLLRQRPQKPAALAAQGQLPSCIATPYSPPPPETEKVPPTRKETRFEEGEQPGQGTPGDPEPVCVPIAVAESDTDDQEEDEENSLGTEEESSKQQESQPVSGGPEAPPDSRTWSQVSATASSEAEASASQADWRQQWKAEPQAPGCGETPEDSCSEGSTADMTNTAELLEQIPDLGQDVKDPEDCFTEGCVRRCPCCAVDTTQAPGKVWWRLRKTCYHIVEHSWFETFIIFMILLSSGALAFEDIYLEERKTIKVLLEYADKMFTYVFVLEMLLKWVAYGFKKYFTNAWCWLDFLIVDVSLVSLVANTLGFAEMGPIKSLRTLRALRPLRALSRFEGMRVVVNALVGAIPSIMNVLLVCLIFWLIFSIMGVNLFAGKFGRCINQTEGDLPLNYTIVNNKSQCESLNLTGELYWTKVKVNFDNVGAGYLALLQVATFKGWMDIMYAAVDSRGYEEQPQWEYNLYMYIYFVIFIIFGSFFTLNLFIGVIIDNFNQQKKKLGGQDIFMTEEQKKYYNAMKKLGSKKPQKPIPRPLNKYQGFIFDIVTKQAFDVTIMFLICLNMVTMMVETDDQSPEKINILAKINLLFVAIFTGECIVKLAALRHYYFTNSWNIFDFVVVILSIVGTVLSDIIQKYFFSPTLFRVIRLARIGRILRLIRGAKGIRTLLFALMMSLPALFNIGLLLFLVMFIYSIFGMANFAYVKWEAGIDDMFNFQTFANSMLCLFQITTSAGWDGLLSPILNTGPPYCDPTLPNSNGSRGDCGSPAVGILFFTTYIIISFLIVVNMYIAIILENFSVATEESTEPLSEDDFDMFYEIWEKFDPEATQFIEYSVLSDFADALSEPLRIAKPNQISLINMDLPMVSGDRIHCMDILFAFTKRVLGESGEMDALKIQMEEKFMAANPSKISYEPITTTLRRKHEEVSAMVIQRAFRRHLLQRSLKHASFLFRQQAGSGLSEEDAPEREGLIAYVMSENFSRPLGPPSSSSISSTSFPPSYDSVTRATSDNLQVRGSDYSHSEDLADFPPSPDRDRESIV

Compound | inhibition at 10 µM [1] | inhibition at 3 µM [2, 3] | inhibition at 3 µM [2, 4]
O=C(COc1noc2ccc(-c3ccc(OC(F)(F)F)cc3)cc12)N1CCCC1 [Example 121, 1-(pyrrolidin-1-yl)-2-((5-(4-(trifluoromethoxy)phenyl)benzo[d]isoxazol-3-yl)oxy)ethan-1-one] | 43.6% | 79% | 23.4%
FC(F)(F)Oc1ccc(-c2ccc3onc(NCCn4cncn4)c3c2)cc1 [Example 137, N-(2-(1H-1,2,4-triazol-1-yl)ethyl)-5-(4-(trifluoromethoxy)phenyl)benzo[d]isoxazol-3-amine] | 82.6% | 43.9% | 17.4%
C[C@@H](N)COc1noc2ccc(-c3ccc(OC(F)(F)F)cc3)cc12 [Example 117, (R)-1-((5-(4-(trifluoromethoxy)phenyl)benzo[d]isoxazol-3-yl)oxy)propan-2-amine] | 80.9% | 79.3% | 60.8%
CN1CCN(c2noc3ccc(-c4ccc(OC(F)(F)F)cc4)cc23)CC1 [Example 127, 3-(4-methylpiperazin-1-yl)-5-(4-(trifluoromethoxy)phenyl)benzo[d]isoxazole] | 82.8% | 23.7% | 25.1%
OCc1cn(-c2noc3ccc(-c4ccc(OC(F)(F)F)cc4)cc23)cn1 [Example 146, (1-(5-(4-(trifluoromethoxy)phenyl)benzo[d]isoxazol-3-yl)-1H-imidazol-4-yl)methanol] | 87.3% | 28.8% | 25.5%
Cc1ccnc(COc2noc3ccc(-c4ccc(OC(F)(F)F)cc4)cc23)n1 [Example 5, 3-((4-methylpyrimidin-2-yl)methoxy)-5-(4-(trifluoromethoxy)phenyl)benzo[d]isoxazole] | < 5% | 18% | < 5%
CC(=O)N1CC(COc2noc3ccc(-c4ccc(OC(F)(F)F)cc4)cc23)C1 [Example 110, 1-(3-(((5-(4-(trifluoromethoxy)phenyl)benzo[d]isoxazol-3-yl)oxy)methyl)azetidin-1-yl)ethan-1-one] | 77.7% | 14.5% | 11.5%
C[C@H](COc1noc2ccc(-c3ccc(OC(F)(F)F)cc3)cc12)N1CCCC1=O [Example 119, (R)-1-(1-((5-(4-(trifluoromethoxy)phenyl)benzo[d]isoxazol-3-yl)oxy)propan-2-yl)pyrrolidin-2-one] | 56.3% | 36.1% | 6.4%
Cc1cc(-c2ccc3onc(OCc4ncccn4)c3c2)ccc1OC(F)(F)F [Example 7, 5-(3-methyl-4-(trifluoromethoxy)phenyl)-3-(pyrimidin-2-ylmethoxy)benzo[d]isoxazole] | < 5% | 16.3% | < 5%
FC(F)(F)Oc1ccc(-c2ccc3onc(OC[C@H]4COCCN4)c3c2)cc1 [Example 114, (R)-3-(morpholin-3-ylmethoxy)-5-(4-(trifluoromethoxy)phenyl)benzo[d]isoxazole] | 87.1% | 43.4% | 33.3%
FC(F)(F)c1ccc(-c2ccc3onc(OCc4ncccn4)c3c2)cc1 [Example 9, 3-(pyrimidin-2-ylmethoxy)-5-(4-(trifluoromethyl)phenyl)benzo[d]isoxazole] | < 5% | 41.3% | 10.3%
Cc1cc(-c2ccc(OC(F)(F)F)cc2)cc2c(OCc3ncccn3)noc12 [Example 16, 7-methyl-3-(pyrimidin-2-ylmethoxy)-5-(4-(trifluoromethoxy)phenyl)benzo[d]isoxazole] | 27.3% | 35.8% | < 5%
CC(C)(C)c1cn(-c2noc3ccc(-c4ccc(OC(F)(F)F)cc4)cc23)cn1 [Example 143, 3-(4-(tert-butyl)-1H-imidazol-1-yl)-5-(4-(trifluoromethoxy)phenyl)benzo[d]isoxazole] | 66.6% | 39.8% | 11.2%
Cc1cn(-c2noc3ccc(-c4ccc(OC(F)(F)F)cc4)cc23)cn1 [Example 139, 3-(4-methyl-1H-imidazol-1-yl)-5-(4-(trifluoromethoxy)phenyl)benzo[d]isoxazole] | 8.8% | 15.6% | < 5%
FC(F)(F)Oc1ccc(-c2ccc3onc(Oc4ncccn4)c3c2)cc1 [Example 124, 3-(pyrimidin-2-yloxy)-5-(4-(trifluoromethoxy)phenyl)benzo[d]isoxazole] | 35% | 49.9% | < 5%
Fc1cccnc1COc1noc2ccc(-c3ccc(OC(F)(F)F)cc3)cc12 [Example 94, 3-((3-fluoropyridin-2-yl)methoxy)-5-(4-(trifluoromethoxy)phenyl)benzo[d]isoxazole] | < 5% | 17.1% | < 5%
Cc1cc(-c2ccc(OC(F)(F)F)cc2)cc2c(OCc3cn(C)nn3)noc12 [Example 87, 7-methyl-3-((1-methyl-1H-1,2,3-triazol-4-yl)methoxy)-5-(4-(trifluoromethoxy)phenyl)benzo[d]isoxazole] | 90.8% | 54.7% | 39%
COc1ccnc(COc2noc3ccc(-c4ccc(OC(F)(F)F)cc4)cc23)n1 [Example 67, 3-((4-methoxypyrimidin-2-yl)methoxy)-5-(4-(trifluoromethoxy)phenyl)benzo[d]isoxazole] | 5.26% | 48.7% | < 5%
COc1cc2onc(OCc3ncccn3)c2cc1-c1ccc(F)c(Cl)c1 [Example 15, 5-(3-chloro-4-fluorophenyl)-6-methoxy-3-(pyrimidin-2-ylmethoxy)benzo[d]isoxazole] | < 5% | 14.3% | < 5%
FC(F)(F)Oc1ccc(-c2ccc3onc(-n4cnc(-c5ccccc5)c4)c3c2)cc1 [Example 142, 3-(4-phenyl-1H-imidazol-1-yl)-5-(4-(trifluoromethoxy)phenyl)benzo[d]isoxazole] | 59% | 15.6% | 13.9%
Cc1cc(COc2noc3ccc(-c4ccc(OC(F)(F)F)cc4)cc23)on1 [Example 102, 3-((3-methylisoxazol-5-yl)methoxy)-5-(4-(trifluoromethoxy)phenyl)benzo[d]isoxazole] | < 5% | 27.8% | 7.7%
Fc1cc(-c2ccc(OC(F)(F)F)cc2)cc2c(OCc3nnc(C4CC4)o3)noc12 [Example 104, 3-((5-cyclopropyl-1,3,4-oxadiazol-2-yl)methoxy)-7-fluoro-5-(4-(trifluoromethoxy)phenyl)benzo[d]isoxazole] | 53.1% | 23.6% | 19.8%
FC(F)(F)Oc1ccc(-c2ccc3onc(NCc4ncco4)c3c2)cc1 [Example 156, N-(oxazol-2-ylmethyl)-5-(4-(trifluoromethoxy)phenyl)benzo[d]isoxazol-3-amine] | 26.5% | 10.4% | < 5%
CC(=O)N1CCC[C@H]1COc1noc2ccc(-c3ccc(OC(F)(F)F)cc3)cc12 [Example 109, (S)-1-(2-(((5-(4-(trifluoromethoxy)phenyl)benzo[d]isoxazol-3-yl)oxy)methyl)pyrrolidin-1-yl)ethan-1-one] | 57% | 14.5% | < 5%
CC(=O)N1CCOC[C@@H]1COc1noc2ccc(-c3ccc(OC(F)(F)F)cc3)cc12 [Example 116, (R)-1-(3-(((5-(4-(trifluoromethoxy)phenyl)benzo[d]isoxazol-3-yl)oxy)methyl)morpholino)ethan-1-one] | 70.4% | 28.9% | 15%
